Like-named read-outs stand apart in the source and are kept apart here. Bounds are passed on as bounds.

The target of one assay is NRAS G12C (Homo sapiens (Human), UniProt P01111+P62937, G12C). Kind of assay: Ras-Raf (BRAF RBD) disruption / FRET / MOA assay, NRAS G12C. It is filed as biochemical. Conditions: read-out: IC50* NRAS G12C FRET data. The method, boiled down: (§1)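 Compounds, top final concentration 30 μM in 10-point 3-fold series, incubated 3 hours at 25° C with nucleotide-loaded Ras, cyclophilin A and BRAF RBD.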
Chain of NRAS G12C (P01111 whole entry G12C): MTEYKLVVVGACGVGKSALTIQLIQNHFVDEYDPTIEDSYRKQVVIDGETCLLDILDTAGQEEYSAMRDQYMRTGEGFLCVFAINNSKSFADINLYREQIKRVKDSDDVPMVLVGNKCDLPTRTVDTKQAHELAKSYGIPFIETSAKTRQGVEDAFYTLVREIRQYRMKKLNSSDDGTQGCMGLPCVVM
Chain of NRAS G12C (P62937 whole entry): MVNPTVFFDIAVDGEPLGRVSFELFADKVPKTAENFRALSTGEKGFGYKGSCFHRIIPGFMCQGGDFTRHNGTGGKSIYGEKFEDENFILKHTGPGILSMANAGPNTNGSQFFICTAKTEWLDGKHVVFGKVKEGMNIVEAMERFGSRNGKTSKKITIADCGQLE

Another assay deals with KRAS G12D (Homo sapiens (Human), UniProt P01116+P62937, G12D). Kind of assay: Ras-Raf (BRAF RBD) disruption / FRET / MOA assay, KRAS G12D. It is filed as biochemical. The settings on record: Ras-Raf disruption/FRET/MOA assay; class symbols; read-out: KRAS G12D FRET data IC50. The method, boiled down: as §1
Chain of KRAS G12D (P01116-2 other isoform, or with tags, fused parts or gaps G12D): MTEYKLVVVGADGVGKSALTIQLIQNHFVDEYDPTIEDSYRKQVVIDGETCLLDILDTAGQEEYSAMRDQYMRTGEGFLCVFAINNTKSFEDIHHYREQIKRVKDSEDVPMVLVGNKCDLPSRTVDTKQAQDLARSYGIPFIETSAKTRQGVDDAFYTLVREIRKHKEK
Chain of KRAS G12D (P62937 whole entry): as the sequence (P62937 whole entry) above
For the next assay, the system named is NCI-H358 (K-Ras G12C). Kind of assay: CellTiter-Glo cell viability assay, NCI-H358. It is filed as cell-based, human. Conditions: Homo sapiens, NCI-H358, 120 h, NCI-H358, 5-day treatment; class symbols; read-out: Additional H358 Cell Viability assay data (K-Ras G12C, IC50). In a few lines: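 Compounds were dispensed directly onto K-Ras mutant cells and incubated until day 5, then plates were equilibrated to room temperature for about 30 minutes before CellTiter-Glo luminescence. Signals were normalized as (sample/average DMSO)*100 and fitted by four-parameter logistic fit.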
For orientation: Cellular ATP, detected with luciferase, serves as a proxy for viable cell number.

Another assay addresses K-Ras G12C (Homo sapiens (Human), UniProt P01116+P62937, G12C). Kind of assay: Ras-Raf (BRAF RBD) disruption / FRET / MOA assay, KRAS G12C. The settings on record: KRAS G12C; Ras-Raf disruption/FRET/MOA assay; read-out: IC50* KRAS G12C FRET data. Type of assay: biochemical. In a few lines: as §1
The next assay addresses KRAS G13D (Homo sapiens (Human), UniProt P01116+P62937, G13D). Kind of assay: Ras-Raf (BRAF RBD) disruption / FRET / MOA assay, KRAS G13D. Type of assay: biochemical. The settings on record: read-out: IC50* KRAS G13D FRET data. The method, boiled down: as §1
A further assay deals with K-Ras G13C (Homo sapiens (Human), UniProt P01116+P62937, G13C). Briefly: Ras-Raf (BRAF RBD) disruption / FRET / MOA assay, KRAS G13C. It is filed as biochemical. The settings on record: KRAS G13C; Ras-Raf disruption/FRET/MOA assay; read-out: IC50* KRAS G13C FRET data. The method, boiled down: as §1
Chain of K-Ras G13C (P01116-2 other isoform, or with tags, fused parts or gaps G13C): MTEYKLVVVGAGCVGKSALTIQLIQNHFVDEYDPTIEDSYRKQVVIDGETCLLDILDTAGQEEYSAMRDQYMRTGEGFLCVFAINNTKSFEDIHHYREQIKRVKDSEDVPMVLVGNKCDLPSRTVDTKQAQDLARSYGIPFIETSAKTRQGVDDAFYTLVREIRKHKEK
Chain of K-Ras G13C (P62937 whole entry): as the sequence (P62937 whole entry) above
For assay [1], the system named is NCI-H358 cells (K-Ras G12C). Briefly: Potency assay: pERK in NCI-H358 cells. It is filed as cell-based, human. Conditions: H358 KRAS G12C, read-out: pERK EC50. The method, boiled down:
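Inhibition of cellular pERK after a 4 h treatment, detected by AlphaLISA or In-Cell Western. IC50 from a four-parameter concentration-response fit.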

Another assay addresses KRAS G12S (Homo sapiens (Human), UniProt P01116+P62937, G12S). Briefly: Ras-Raf (BRAF RBD) disruption / FRET / MOA assay, KRAS G12S. The settings on record: Ras-Raf disruption/FRET/MOA assay; class symbols; read-out: KRAS G12S FRET data IC50. It is filed as biochemical. The method, boiled down:
as §1

The next assay concerns the target KRAS G12V (Homo sapiens (Human), UniProt P01116+P62937, G12V). Kind of assay: Ras-Raf (BRAF RBD) disruption / FRET / MOA assay, KRAS G12V. It is filed as biochemical. The settings on record: read-out: IC50* KRAS G12V FRET data. The method, boiled down:
as §1

In another assay the target is KRAS WT (Homo sapiens (Human), UniProt P01116+P62937). Kind of assay: Ras-Raf (BRAF RBD) disruption / FRET / MOA assay, KRAS WT. Type of assay: biochemical. Conditions: read-out: IC50* KRAS WT FRET data. In a few lines: as §1
Chain of KRAS WT (P01116-2 other isoform, or with tags, fused parts or gaps): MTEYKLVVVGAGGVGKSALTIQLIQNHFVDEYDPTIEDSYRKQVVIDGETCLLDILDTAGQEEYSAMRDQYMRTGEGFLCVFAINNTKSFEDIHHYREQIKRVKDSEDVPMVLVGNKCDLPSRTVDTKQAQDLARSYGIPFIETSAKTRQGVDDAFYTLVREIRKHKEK
Chain of KRAS WT (P62937 whole entry): as the sequence (P62937 whole entry) above

Chain of KRAS G12S (P01116-2 other isoform, or with tags, fused parts or gaps G12S): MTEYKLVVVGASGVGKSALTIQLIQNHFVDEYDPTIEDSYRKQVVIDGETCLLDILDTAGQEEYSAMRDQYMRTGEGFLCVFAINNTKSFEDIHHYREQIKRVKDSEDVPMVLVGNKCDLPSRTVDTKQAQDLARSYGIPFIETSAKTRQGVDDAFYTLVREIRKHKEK
Chain of KRAS G12S (P62937 whole entry): as the sequence (P62937 whole entry) above
Chain of KRAS G12V (P01116-2 other isoform, or with tags, fused parts or gaps G12V): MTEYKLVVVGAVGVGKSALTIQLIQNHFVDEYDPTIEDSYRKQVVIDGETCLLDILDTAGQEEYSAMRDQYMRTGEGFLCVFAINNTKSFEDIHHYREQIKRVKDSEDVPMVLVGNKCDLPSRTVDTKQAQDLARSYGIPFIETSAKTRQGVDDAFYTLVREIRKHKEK
Chain of KRAS G12V (P62937 whole entry): as the sequence (P62937 whole entry) above
Chain of KRAS G13D (P01116-2 other isoform, or with tags, fused parts or gaps G13D): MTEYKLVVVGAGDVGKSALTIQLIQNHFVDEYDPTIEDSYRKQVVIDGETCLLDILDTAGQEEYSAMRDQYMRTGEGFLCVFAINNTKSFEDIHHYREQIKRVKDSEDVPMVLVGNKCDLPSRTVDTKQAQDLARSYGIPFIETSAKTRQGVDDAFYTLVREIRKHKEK
Chain of KRAS G13D (P62937 whole entry): as the sequence (P62937 whole entry) above
Chain of K-Ras G12C (P01116-2 other isoform, or with tags, fused parts or gaps G12C): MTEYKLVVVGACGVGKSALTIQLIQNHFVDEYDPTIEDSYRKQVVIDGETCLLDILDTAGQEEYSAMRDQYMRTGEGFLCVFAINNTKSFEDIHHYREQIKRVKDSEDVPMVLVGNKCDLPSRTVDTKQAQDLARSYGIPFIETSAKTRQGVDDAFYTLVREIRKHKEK
Chain of K-Ras G12C (P62937 whole entry): as the sequence (P62937 whole entry) above

Usually IC50 stands for the concentration that gives 50% inhibition. As usually defined, the EC50 is the concentration giving half of the maximal effect. `C=CC(=O)Nc1cnc(C(=O)N(C)[C@H](C(=O)N[C@H]2Cc3cc(O)cc(c3)-c3ccc4c(c3)c(c(-c3cccnc3[C@H](C)OC)n4CC)CC(C)(C)COC(=O)[C@@H]3CCCN(N3)C2=O)C(C)C)s1` (atropisomer, axis not shown) [Example A254]: the IC50 at NRAS G12C lay in the range of 0.1 to 1 µM; on KRAS G12D, 1 to 10 µM; with NCI-H358 (K-Ras G12C), 0.1 to 1 µM; on K-Ras G12C, 0.1 to 1 µM; at KRAS G13D, 1 to 10 µM; at K-Ras G13C it was 0.01 to 0.1 µM. Moreover, the IC50 was 1 to 10 µM at KRAS G12S, 1 to 10 µM on KRAS G12V and 0.1 to 1 µM at KRAS WT. In addition, in assay [1] (Homo sapiens, NCI-H358), the EC50 was less than 5 µM.
In the case of `C=CC(=O)Nc1cnc(C(=O)N(C)[C@H](C(=O)N[C@H]2Cc3cc(O)cc(c3)-c3ccc4c(c3)c(c(-c3cccnc3[C@H](C)OC)n4CC)CC(C)(C)COC(=O)[C@@H]3CCCN(N3)C2=O)C(C)C)n1C` (atropisomer, axis not shown) [Example A255], the IC50 on NRAS G12C is less than 0.01 µM; at KRAS G12D, 0.1 to 1 µM; with NCI-H358 (K-Ras G12C), less than 0.01 µM; at K-Ras G12C, less than 0.01 µM; at KRAS G13D it was 0.1 to 1 µM; at K-Ras G13C it was less than 0.01 µM. For the same compound, the IC50 was 0.01 to 0.1 µM at KRAS G12S, 0.1 to 1 µM on KRAS G12V and 0.1 to 1 µM at KRAS WT. Further, the EC50 in assay [1] is less than 5 µM.
`C=CC(=O)N1CC(C(=O)N(C)[C@H](C(=O)N[C@H]2Cc3cc(O)cc(c3)-c3ccc4c(c3)c(c(-c3cccnc3[C@H](C)OC)n4CC)CC(C)(C)COC(=O)[C@@H]3CCCN(N3)C2=O)C(C)C)C1` (atropisomer, axis not shown) [Example A256]: the IC50 was 0.01 to 0.1 µM at NRAS G12C; 0.1 to 1 µM at KRAS G12D; less than 0.01 µM in the assay with NCI-H358 (K-Ras G12C); less than 0.01 µM at K-Ras G12C; 0.1 to 1 µM at KRAS G13D; 0.01 to 0.1 µM at K-Ras G13C. Besides, the IC50 at KRAS G12S is 0.01 to 0.1 µM; at KRAS G12V, 0.1 to 1 µM; on KRAS WT it was 0.01 to 0.1 µM. Besides, the EC50 in assay [1] (Homo sapiens, NCI-H358) is less than 5 µM.
Take `CCn1c(-c2cccnc2[C@H](C)OC)c2c3cc(ccc31)-c1cc(O)cc(c1)C[C@H](NC(=O)[C@H](C(C)C)N(C)C(=O)C1CN(C(=O)/C=C/CN(C)C)C1)C(=O)N1CCC[C@H](N1)C(=O)OCC(C)(C)C2` (atropisomer, axis not shown) [Example A257]: the IC50 on NRAS G12C is less than 0.01 µM; at KRAS G12D, 0.1 to 1 µM; in the assay with NCI-H358 (K-Ras G12C) it was 0.01 to 0.1 µM; on K-Ras G12C, less than 0.01 µM; on KRAS G13D it was 0.1 to 1 µM; at K-Ras G13C, 0.01 to 0.1 µM. Moreover, the IC50 on KRAS G12S, at KRAS G12V and on KRAS WT was 0.1 to 1 µM each time. In addition, the EC50 in assay [1] (Homo sapiens, NCI-H358) is less than 5 µM.
For the compound `C=CC(=O)Nc1csc(C(=O)N(C)[C@H](C(=O)N[C@H]2Cc3cc(O)cc(c3)-c3ccc4c(c3)c(c(-c3cccnc3[C@H](C)OC)n4CC)CC(C)(C)COC(=O)[C@@H]3CCCN(N3)C2=O)C(C)C)n1` (atropisomer, axis not shown) [Example A259], the IC50 at NRAS G12C was 0.1 to 1 µM; at KRAS G12D, more than 10 µM; in the assay on NCI-H358 (K-Ras G12C), 0.1 to 1 µM; at K-Ras G12C, 0.1 to 1 µM; at KRAS G13D, 1 to 10 µM; at K-Ras G13C it was 0.01 to 0.1 µM. Also, the IC50 on KRAS G12S fell in the range of 1 to 10 µM; at KRAS G12V it was 1 to 10 µM; at KRAS WT, 0.1 to 1 µM. In addition, the 50% effective concentration (EC50) in assay [1] (Homo sapiens, NCI-H358) was less than 5 µM.
`C=CC(=O)N1CCC(C(=O)N(C)[C@H](C(=O)N[C@H]2Cc3cc(O)cc(c3)-c3ccc4c(c3)c(c(-c3cccnc3[C@H](C)OC)n4CC)CC(C)(C)COC(=O)[C@@H]3CCCN(N3)C2=O)C(C)C)CC1` (atropisomer, axis not shown) [Example A260]: the IC50 on NRAS G12C was 0.01 to 0.1 µM; on KRAS G12D it was 0.1 to 1 µM; in the assay with NCI-H358 (K-Ras G12C), less than 0.01 µM; at K-Ras G12C, 0.01 to 0.1 µM; on KRAS G13D, 0.01 to 0.1 µM; on K-Ras G13C it was 0.01 to 0.1 µM. Further, the half-maximal inhibitory concentration (IC50) at KRAS G12S is 0.01 to 0.1 µM; at KRAS G12V, 0.1 to 1 µM; at KRAS WT it was 0.01 to 0.1 µM. The EC50 in assay [1] (Homo sapiens, NCI-H358) was less than 5 µM.
